Reference: US20250381256A1 (priority 2022, published 2025)
“Also recorded” adds a separate entry of the source. Square brackets hold non-standard residues; d marks the D form. Ends that are not written are not given here. Cha = N[C@@H](CC1CCCCC1)C(=O)O

Legend:
I-Ab = target: T1, I-Ab (Mus musculus, UniProt P14434+P14483); conditions: haplotype of C57BL/6 mice; read-out: Reported affinity for I-Ab; cited from earlier work
T1 sequence (P14434 24-256): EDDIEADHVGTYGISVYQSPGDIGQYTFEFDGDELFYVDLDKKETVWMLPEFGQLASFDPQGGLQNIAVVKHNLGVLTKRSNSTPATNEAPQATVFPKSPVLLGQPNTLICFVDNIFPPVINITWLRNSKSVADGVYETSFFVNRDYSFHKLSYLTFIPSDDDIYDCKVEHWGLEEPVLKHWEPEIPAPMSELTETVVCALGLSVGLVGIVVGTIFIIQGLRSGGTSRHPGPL
T1 sequence (P14483 28-265): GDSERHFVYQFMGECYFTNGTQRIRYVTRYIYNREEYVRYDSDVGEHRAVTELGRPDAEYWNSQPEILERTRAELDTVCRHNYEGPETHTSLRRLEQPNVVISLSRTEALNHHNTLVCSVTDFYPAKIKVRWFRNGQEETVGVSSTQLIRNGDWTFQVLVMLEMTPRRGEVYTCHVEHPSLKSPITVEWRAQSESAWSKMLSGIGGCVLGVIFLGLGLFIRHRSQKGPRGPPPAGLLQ

gut microbiome = experiment: Microbiome analysis of fecal pellets (16S rRNA sequencing); assay type: in vivo, C57BL/6 mice
Method: Microbiome Analysis. Fecal pellets were collected from mice and immediately frozen on dry ice prior to storage at −80° C. Samples were submitted to the Duke Center for Genomic and Computational Biology Microbiome Shared Resource core for microbiome analyses. In brief, the Duke Microbiome Core Facility (MCF) extracted DNA using the Qiagen PowerSoilPro DNA Kit (Qiagen, 47014). Bacterial community composition in isolated DNA samples was characterized by amplification of the V4 variable region of the 16S rRNA gene by polymerase chain reaction using the forward primer 515 and reverse primer 806 following the Earth Microbiome Project protocol (http://www.earthmicrobiome.org/). These primers (515F and 806R) carry unique barcodes that allow for multiplexed sequencing. Concentration of the PCR products were accessed using a Qubit dsDNA HS assay kit (ThermoFisher, Q32854) and a Promega GloMax plate reader. Equimolar 16S rRNA PCR products from all samples were pooled prior to sequencing, which was performed by the Duke Sequencing and Genomic Technologies (SGT) shared resource on an Illumina MiSeq instrument configured for 250 base-pair paired-end sequencing runs.
Sequences were analyzed using QIIME2 software. Demultiplexed forward reads were assigned a cut off between 10-230 bp and reverse reads were assigned a cut off between 10-160 bp. […]

[1] = system: CFT073 uropathogenic E. coli; experiment: Transurethral infection model with CFT073; conditions: 5×10^7 CFU CFT073, vs control OVA vaccine
Method: Bacterial Culture and Challenge Model. The uropathogenic E. coli strain CFT073 was purchased from ATCC (700928); this strain was originally isolated from a pyelonephritis patient. CFT073 was cultured at 37° C. with aeration in Luria broth (10 g/L tryptone, 5 g/L yeast extract, 10 g/L sodium chloride) at a 1:100 dilution from a starter culture.
For the transurethral infection model, water supply was removed from cages for one hour prior to infection to allow for voiding of bladder. Mice were sedated with an i.p. injection of a ketamine/xylazine cocktail and a sterilized plastic needle dabbed in surgical lubricant was used to deliver 5×10^7 CFU of CFT073 into the urethra. Mice were monitored as for the bacteremia model, but with sacrifice at 48 h.

OVA323-339 = experiment: Anti-OVA antibody responses after sublingual nanofiber immunization of mice; assay type: in vivo
[2] = Nanofiber structure after freeze-drying, tabletization and dissolution (atomic force microscopy); assay type: physicochemical; conditions: various levels of cryoprotectant sugars
Method: FIG. 16. SIMPL tablets incorporating Coil29-based nanofibers. Top panel: epitope-containing peptide nanofibers were assembled in buffer, then cryoprotectant sugars were added, and tablets were formed by freeze drying. Bottom panel: Tablets were stable enough for handling (left), and Coil29 nanofibers retained their structure after freeze-drying, tabletization, and dissolution (images by atomic force microscopy).

[3] = system: 1:1:1 mixture of plreA, plutA, and plroN; experiment: Urinary antibody ELISA on undiluted urine of immunized mice; conditions: one nanofiber and three nanofiber groups combined
Method: Animals and Immunizations. […] Murine immunizations were initiated with female C57BL/6 mice (Envigo) aged 9-12 weeks. For sublingual immunizations, mice were deeply anesthetized by a cocktail delivering 100 mg/kg ketamine and 10 mg/kg xylazine. For droplet immunizations, a micropipette with a 20 μL tip was used to apply 8 μL of the immunizing solution below the tongue. For tablet immunizations, the tablet was placed below the tongue of anesthetized mice using tweezers. For droplet and tablet immunizations, the mouse's heads were placed in anteflexion for 20 min following administration to prevent swallowing of the material.
Measurement of Antibody Responses. Serum was collected via the submandibular vein. For analysis of epitope-specific IgG by ELISA, plates were coated with 20 μg/mL of streptavidin (Millipore Sigma, 189730) overnight at 4° C. Plates were washed with 0.5 g/L Tween-20 in PBS (1×PBST), coated for 1 hour with 20 μg/mL biotinylated plreA, pluta, or plroN, and blocked with Super Block Blocking Buffer (Thermo Scientific, 37515). […] Sera diluted in PBST-BSA or undiluted urine were added to the plate, and antigen-specific IgG was detected by horseradish peroxidase (HRP) conjugated Fcγ fragment specific goat anti-mouse IgG (Jackson Immuno Research, 15-035-071). […]

Question: With “PADRE ([dA]K[Cha]VAAWTLKA[dA]) [aKXVAAWTLKAa]” as the compound, how does the Kd (I-Ab) read?
Answer: 94 nM

Question: Which “OTU richness of the microbiome” value (gut microbiome; week 13 (vaccine) or week 13.5 (after 3 daily doses of 1000 mg/kg Fosfomycin)) does the source give for `C[C@@H]1O[C@@H]1P(=O)(O)O` [Fosfomycin] here?
Answer: drastically reduced

Question: And the “Shannon diversity index (α-diversity)” value (gut microbiome; week 13 (vaccine) or week 13.5 (antibiotic))?
Answer: highly significantly different from these groups

Question: What about the “Body temperature after transurethral challenge” value [1] of the same compound?
Answer: maintained significantly higher temperatures than mice given the control vaccine

Question: Which results are given for “QARILEADAEILRAYARILEAHAEILRAQ (Ac-QARILEADAEILRAYARILEAHAEILRAQ-NH2) [Coil29]”?
Answer: Sublingual immunogenicity after tabletization (OVA323-339; SIMPL tablets, range of peptide and cryoprotectant sugar concentrations, 10 μg c-di-AMP): sublingually immunogenic; Sublingual immunogenicity (OVA323-339; mouse models, Coil29 nanofibers, liquid formulations): did not depend on PASylation for immunogenicity; Nanofibrillar structure in tablets [2]: retained their nanofibrillar structure

Question: With QLVFNSISARALKAY [VAC] as the compound, how does the Kd (I-Ab) read?
Answer: 13.5 nM

Question: For `Nc1ncnc2c1ncn2[C@@H]1O[C@@H]2COP(=O)(O)O[C@H]3[C@@H](O)[C@H](n4cnc5c(N)ncnc54)O[C@@H]3COP(=O)(O)O[C@H]2[C@H]1O` [cyclic-di-AMP], which “Serum IgG titers at reduced adjuvant dose” value (OVA323-339; 1 μg c-di-AMP with 8 μL of 5 mM OVA-Coil29, sublingual) is on record?
Answer: equivalent titers to 10 times that dose; also recorded: sufficient to raise strong titers

Question: And the “Epitope-specific IgA levels in the urine, adjuvant comparison” value ([3]; cyclic-di-AMP vs CTB (p=0.038))?
Answer: significantly higher epitope-specific IgA levels in the urine than CTB

Question: What about the “Epitope-specific IgG levels in the urine, adjuvant comparison” value ([3]; cyclic-di-AMP vs CTB (p=0.38)) of the same compound?
Answer: did not differ significantly
